In brackets after ≈: the same amount, converted by molar mass.
Legend:
Type in all cases: functional
[1] = system: Mycobacterium tuberculosis; experiment: Growth inhibition of Mycobacterium tuberculosis H37Ra Lehmann and Neumann ATCC 25177 harboring pSMT1 luciferase reporter at 10 uM after 6 days by luminescence based serial dilution method relative to control; conditions: H37Ra Lehmann and Neumann ATCC 25177, 144 h, read-out: GI
[2] = system: Mycobacterium tuberculosis; experiment: Growth inhibition of Mycobacterium tuberculosis H37Ra Lehmann and Neumann ATCC 25177 harboring pSMT1 luciferase reporter at 1 uM after 6 days by luminescence based serial dilution method relative to control; conditions: H37Ra Lehmann and Neumann ATCC 25177, 144 h, read-out: GI
[3] = system: Mycobacterium tuberculosis; experiment: Growth inhibition of Mycobacterium tuberculosis H37Ra Lehmann and Neumann ATCC 25177 harboring pSMT1 luciferase reporter at 0.1 uM after 6 days by luminescence based serial dilution method relative to control; conditions: H37Ra Lehmann and Neumann ATCC 25177, 144 h, read-out: GI
[4] = system: Mycobacterium tuberculosis; experiment: Antimycobacterial activity against Mycobacterium tuberculosis H37Ra Lehmann and Neumann ATCC 25177 harboring pSMT1 luciferase reporter after 6 days by luminescence based serial dilution method; conditions: H37Ra Lehmann and Neumann ATCC 25177, 144 h

Cn1c(=O)c(-c2ccccc2)c(O)c2ccccc21
inhibition of growth at 10 µM [1]: 87.2% | inhibition of growth at 1 µM [2]: 49.5% | inhibition of growth at 0.1 µM [3]: 29.8%

CCc1c(O)c2ccc(OC)cc2[nH]c1=O
inhibition of growth at 10 µM [1]: 60.8% | inhibition of growth at 1 µM [2]: 36% | inhibition of growth at 0.1 µM [3]: 23.7%

COc1ccc2[nH]c(=O)c(-c3ccccc3)c(O)c2c1
inhibition of growth at 10 µM [1]: 90.8% | inhibition of growth at 1 µM [2]: 24.5% | inhibition of growth at 0.1 µM [3]: 9.4% | MIC90 [4]: 8.7 µM (≈ 2.33 µg/mL)

O=c1[nH]c2c(O)cccc2c(O)c1-c1ccccc1
inhibition of growth at 10 µM [1]: 95.3% | inhibition of growth at 1 µM [2]: 67.1% | inhibition of growth at 0.1 µM [3]: 60% | MIC90 [4]: 8.3 µM (≈ 2.1 µg/mL)

CCc1c(O)c2c(Cl)ccc(C)c2[nH]c1=O
inhibition of growth at 10 µM [1]: 55.1% | inhibition of growth at 1 µM [2]: 48.8% | inhibition of growth at 0.1 µM [3]: 33.3%

Oc1nc2ccccc2c(O)c1Cc1ccccc1
inhibition of growth at 10 µM [1]: 53.5% | inhibition of growth at 1 µM [2]: 40.2% | inhibition of growth at 0.1 µM [3]: 7.5%

CCCCc1c(O)c2ccccc2n(-c2ccccc2)c1=O
inhibition of growth at 10 µM [1]: 47.3% | inhibition of growth at 1 µM [2]: 46.3% | inhibition of growth at 0.1 µM [3]: 34.4%

O=c1c(-c2ccccc2)c(O)c2ccccc2n1-c1ccccc1
inhibition of growth at 10 µM [1]: 98.3% | inhibition of growth at 1 µM [2]: 53.7% | inhibition of growth at 0.1 µM [3]: 30.1% | MIC90 [4]: 6.4 µM (≈ 2.01 µg/mL)

CCCCc1c(O)c2c(n(-c3ccccc3)c1=O)C1(C)CCC2C1(C)C (racemic)
inhibition of growth at 10 µM [1]: 7.5% | inhibition of growth at 1 µM [2]: 1.2% | inhibition of growth at 0.1 µM [3]: 0%

CCc1c(OC(C)=O)c2cccc(OC)c2[nH]c1=O
inhibition of growth at 10 µM [1]: 31.2% | inhibition of growth at 1 µM [2]: 13.3% | inhibition of growth at 0.1 µM [3]: 0%

CCCCc1c(O)c2ccccc2n(C)c1=O
inhibition of growth at 10 µM [1]: 23.9% | inhibition of growth at 1 µM [2]: 10.5% | inhibition of growth at 0.1 µM [3]: 0%

Cc1c(O)c2ccccc2n(C)c1=O
inhibition of growth at 10 µM [1]: 83.8% | inhibition of growth at 1 µM [2]: 32.9% | inhibition of growth at 0.1 µM [3]: 4%

O=c1c(-c2ccccc2)c(O)c2ccccc2n1Cc1ccccc1
inhibition of growth at 10 µM [1]: 71.5% | inhibition of growth at 1 µM [2]: 42.4% | inhibition of growth at 0.1 µM [3]: 31.2%

O=c1[nH]c2ccc(F)cc2c(O)c1-c1ccccc1
inhibition of growth at 10 µM [1]: 99.5% | inhibition of growth at 1 µM [2]: 42.6% | inhibition of growth at 0.1 µM [3]: 35.1% | MIC90 [4]: 3.2 µM (≈ 0.817 µg/mL)

NNC(=O)c1ccncc1 [ISONIAZID]
MIC90 [4]: 0.3 µM (≈ 0.0411 µg/mL)

CC(=O)Oc1c(-c2ccccc2)c(=O)[nH]c2ccc(F)cc12
inhibition of growth at 10 µM [1]: 99.2% | inhibition of growth at 1 µM [2]: 38% | inhibition of growth at 0.1 µM [3]: 31% | MIC90 [4]: 3.8 µM (≈ 1.13 µg/mL)

CC(=O)Oc1c(C)c(=O)[nH]c2ccccc12
inhibition of growth at 10 µM [1]: 45.2% | inhibition of growth at 1 µM [2]: 31.8% | inhibition of growth at 0.1 µM [3]: 19.2%

CCc1c(O)c2cc(F)ccc2[nH]c1=O
inhibition of growth at 10 µM [1]: 57.3% | inhibition of growth at 1 µM [2]: 51.3% | inhibition of growth at 0.1 µM [3]: 40%

CC(=O)Oc1cc(=O)[nH]c2ccccc12
inhibition of growth at 10 µM [1]: 35.4% | inhibition of growth at 1 µM [2]: 21.1% | inhibition of growth at 0.1 µM [3]: 14.5%

CCc1c(O)c2cc(OC)ccc2[nH]c1=O
inhibition of growth at 10 µM [1]: 68.2% | inhibition of growth at 1 µM [2]: 56.3% | inhibition of growth at 0.1 µM [3]: 0%

CCc1c(OC(C)=O)c2ccccc2[nH]c1=O
inhibition of growth at 10 µM [1]: 29.4% | inhibition of growth at 1 µM [2]: 9.4% | inhibition of growth at 0.1 µM [3]: 3.5%

CCc1c(OC(C)=O)c2cc(F)ccc2[nH]c1=O
inhibition of growth at 10 µM [1]: 44.5% | inhibition of growth at 1 µM [2]: 14% | inhibition of growth at 0.1 µM [3]: 0%

CCCCc1c(O)c2c(Cl)ccc(C)c2[nH]c1=O
inhibition of growth at 10 µM [1]: 59.1% | inhibition of growth at 1 µM [2]: 38.7% | inhibition of growth at 0.1 µM [3]: 30%

O=c1c(Cc2ccccc2)c(O)c2ccccc2n1Cc1ccccc1
inhibition of growth at 10 µM [1]: 49.5% | inhibition of growth at 1 µM [2]: 38.8% | inhibition of growth at 0.1 µM [3]: 24.8%

COc1ccc2c(OC(C)=O)c(-c3ccccc3)c(=O)[nH]c2c1
inhibition of growth at 10 µM [1]: 81.2% | inhibition of growth at 1 µM [2]: 39.7% | inhibition of growth at 0.1 µM [3]: 20.9%

Cc1cc2[nH]c(=O)c(-c3ccccc3)c(O)c2cc1C
inhibition of growth at 10 µM [1]: 90.7% | inhibition of growth at 1 µM [2]: 48.3% | inhibition of growth at 0.1 µM [3]: 32.5% | MIC90 [4]: 9.2 µM (≈ 2.44 µg/mL)

COc1ccc2[nH]c(=O)c(-c3ccccc3)c(OC(C)=O)c2c1
inhibition of growth at 10 µM [1]: 79.6% | inhibition of growth at 1 µM [2]: 43.2% | inhibition of growth at 0.1 µM [3]: 22.5%

From ChEMBL document CHEMBL4118082 (Eur J Med Chem, 2017)
